This note sets out measurements from doi:10.1101/2025.09.05.673737v1 (biorxiv, 2025).

For the experiment, the target named is T1, ArpA (Streptomyces griseus, UniProt Q9ZN78).
T1 sequence (Q9ZN78 1-276): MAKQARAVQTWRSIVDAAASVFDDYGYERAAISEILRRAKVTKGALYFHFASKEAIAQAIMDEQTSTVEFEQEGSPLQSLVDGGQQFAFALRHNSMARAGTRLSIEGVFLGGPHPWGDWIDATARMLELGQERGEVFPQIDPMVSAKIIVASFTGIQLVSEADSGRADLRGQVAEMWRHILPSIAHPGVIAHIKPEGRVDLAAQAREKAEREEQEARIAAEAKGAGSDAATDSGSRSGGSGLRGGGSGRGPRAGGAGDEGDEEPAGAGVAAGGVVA
Description: E. coli pTOTAL biosensor, GFP derepression dose-response. Type of experiment: cell-based.

As usually defined, the EC50 is the concentration giving half of the maximal effect.

The compound `CC(C)CCCC[C@@H](O)[C@@H]1C(=O)OC[C@H]1CO` [SCB1] gave a half-maximal effective concentration (EC50) of 18.1 µM. In turn, `CC(C)CCCCC(=O)C1C(=O)OC[C@H]1CO` (some centres unmarked) [A-factor] yielded an EC50 of 0.39 µM.
